According to PubChem BioAssay (NCI):
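Assay format: 96-well plates, 48-hour exposure. The concentration for full growth arrest is given as TGI.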

Experiments:
Assay in all cases: NCI-60 cell line screen, 48 h
[1] = system: 786-0 renal
[2] = system: A498 renal
[3] = system: A549 NSCLC
[4] = system: ACHN renal
[5] = system: CAKI-1 renal
[6] = system: CCRF-CEM leukemia
[7] = system: COLO 205 colon
[8] = system: DLD-1 colon
[9] = system: DMS 114 small cell lung
[10] = system: EKVX NSCLC
[11] = system: HCC-2998 colon
[12] = system: HCT-116 colon
[13] = system: HCT-15 colon
[14] = system: HL-60(TB) leukemia
[15] = system: HOP-18 NSCLC
[16] = system: HOP-62 NSCLC
[17] = system: HOP-92 NSCLC
[18] = system: HT29 colon
[19] = system: IGROV1 ovarian
[20] = system: K-562 leukemia
[21] = system: KM12 colon
[22] = system: KM20L2 colon
[23] = system: LOX IMVI melanoma
[24] = system: LXFL 529 NSCLC
[25] = system: M14 melanoma
[26] = system: M19-MEL melanoma
[27] = system: MALME-3M melanoma
[28] = system: MOLT-4 leukemia
[29] = system: NCI-H226 lung
[30] = system: NCI-H23 lung
[31] = system: NCI-H460 lung
[32] = system: NCI-H522 lung
[33] = system: OVCAR-3 ovarian
[34] = system: OVCAR-4 ovarian
[35] = system: OVCAR-5 ovarian
[36] = system: OVCAR-8 ovarian
[37] = system: RPMI-8226 leukemia
[38] = system: RXF 393 renal
[39] = system: RXF-631 renal
[40] = system: SF-268 CNS
[41] = system: SF-295 CNS
[42] = system: SF-539 CNS
[43] = system: SK-MEL-2 melanoma
[44] = system: SK-MEL-28 melanoma
[45] = system: SK-MEL-5 melanoma
[46] = system: SK-OV-3 ovarian
[47] = system: SN12C renal
[48] = system: SNB-19 CNS
[49] = system: SNB-75 CNS
[50] = system: SNB-78 CNS
[51] = system: SR leukemia
[52] = system: SW-620 colon
[53] = system: TK-10 renal
[54] = system: U251 CNS
[55] = system: UACC-257 melanoma
[56] = system: UACC-62 melanoma
[57] = system: UO-31 renal
[58] = system: XF 498 CNS

COc1ccc2c(c1)c(=O)c1c(NCCN(C)C)ccc3nnn2c31
TGI [1]: 14.8 µM | TGI [2]: 21.7 µM | TGI [3]: 12.8 µM | TGI [4]: 14.6 µM | TGI [5]: 13.6 µM | TGI [6]: 10.3 µM | TGI [7]: 10 µM | TGI [8]: 20 µM | TGI [9]: 19.4 µM | TGI [10]: 17.9 µM | TGI [11]: 17.8 µM | TGI [12]: 13.4 µM | TGI [13]: 16 µM | TGI [14]: 5.51 µM | TGI [15]: 7.35 µM | TGI [16]: 15.4 µM | TGI [17]: 10.8 µM | TGI [18]: 12.3 µM | TGI [19]: 17.4 µM | TGI [20]: 15.5 µM | TGI [21]: 6.03 µM | TGI [22]: 14.7 µM | TGI [23]: 2.9 µM | TGI [24]: 18 µM | TGI [25]: 16.2 µM | TGI [26]: 20.8 µM | TGI [27]: 17.2 µM | TGI [28]: 2.99 µM | TGI [29]: 9.44 µM | TGI [30]: 13.1 µM | TGI [31]: 8.54 µM | TGI [32]: 15.8 µM | TGI [33]: 19.6 µM | TGI [34]: 8.17 µM | TGI [35]: 19.6 µM | TGI [36]: 13.6 µM | TGI [37]: 6.13 µM | TGI [38]: 10.5 µM | TGI [39]: 14 µM | TGI [40]: 14.9 µM | TGI [41]: 13.9 µM | TGI [42]: 15.9 µM | TGI [43]: 19.7 µM | TGI [44]: 18.8 µM | TGI [45]: 14.1 µM | TGI [46]: 23.9 µM | TGI [47]: 19.7 µM | TGI [48]: 19.7 µM | TGI [49]: 20.7 µM | TGI [50]: 21.8 µM | TGI [51]: 2.9 µM | TGI [52]: 9.11 µM | TGI [53]: 13.3 µM | TGI [54]: 16.5 µM | TGI [55]: 17 µM | TGI [56]: 17.8 µM | TGI [57]: 13.3 µM

NCCCCCCNCc1cccc2ccccc12
TGI [1]: > 100 µM | TGI [3]: > 100 µM | TGI [4]: > 100 µM | TGI [5]: > 100 µM | TGI [7]: > 100 µM | TGI [8]: > 100 µM | TGI [9]: > 100 µM | TGI [10]: > 100 µM | TGI [12]: > 100 µM | TGI [13]: > 100 µM | TGI [14]: > 100 µM | TGI [15]: > 100 µM | TGI [16]: > 100 µM | TGI [18]: > 100 µM | TGI [19]: > 100 µM | TGI [20]: 51.1 µM | TGI [21]: > 100 µM | TGI [22]: > 100 µM | TGI [23]: > 100 µM | TGI [24]: > 100 µM | TGI [25]: 34.3 µM | TGI [26]: > 100 µM | TGI [27]: 35.6 µM | TGI [28]: > 100 µM | TGI [29]: > 100 µM | TGI [30]: > 100 µM | TGI [31]: > 100 µM | TGI [32]: > 100 µM | TGI [33]: > 100 µM | TGI [34]: > 100 µM | TGI [35]: > 100 µM | TGI [36]: > 100 µM | TGI [37]: > 100 µM | TGI [38]: > 100 µM | TGI [41]: > 100 µM | TGI [42]: > 100 µM | TGI [43]: > 100 µM | TGI [44]: > 100 µM | TGI [45]: > 100 µM | TGI [46]: > 100 µM | TGI [47]: > 100 µM | TGI [48]: > 100 µM | TGI [49]: > 100 µM | TGI [50]: > 100 µM | TGI [51]: > 100 µM | TGI [52]: > 100 µM | TGI [53]: > 100 µM | TGI [54]: > 100 µM | TGI [55]: > 100 µM | TGI [56]: > 100 µM | TGI [57]: > 100 µM | TGI [58]: > 100 µM
